Measurements published in US8969516B2, “Method of hydrolysis of peptide bond” (priority 2006, dated 2015).

Assay: MALDI-TOF screening of Ni^2+ dependent hydrolysis in a combinatorial peptide library
Assay type: physicochemical
Conditions: CH3CO-Gly-Ala-Thr-X-His-Z-Lys-Phe-Leu-NH2 library, Ni^2+ 2 mM, pH 8.2, 10 mM Tris, score=24/tm
Method in brief: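 MALDI-TOF spectra taken at 2, 4, 6 and 8 h tracked the appearance of Ser/Thr-X-His-Z-Lys-Phe-Leu-NH2 cleavage products and the fall in substrate signals. Reactions: 1 mM peptide mixture, 2 mM Ni^2+, 10 mM Tris pH 8.2, at 37 or 45 °C; X/Z substitutions ranked by summed scores.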

Row | Substance | hydrolysis score from MALDI-TOF screening (37° C.) | hydrolysis score from MALDI-TOF screening (45° C.)
1 | Ac-GATIHGKFL-NH2 [TIHG] | 0 (a score of 0 if no trace of the product of hydrolysis was seen after 8 hours of incubation) | 0 (a score of 0 if no trace of the product of hydrolysis was seen after 8 hours of incubation)
2 | Ac-GATIHHKFL-NH2 [TIHH] | 0 (a score of 0 if no trace of the product of hydrolysis was seen after 8 hours of incubation) | 0 (a score of 0 if no trace of the product of hydrolysis was seen after 8 hours of incubation)
3 | Ac-GATIHIKFL-NH2 [TIHI] | 0 (a score of 0 if no trace of the product of hydrolysis was seen after 8 hours of incubation) | 0 (a score of 0 if no trace of the product of hydrolysis was seen after 8 hours of incubation)
4 | Ac-GATIHKKFL-NH2 [TIHK] | 0 (a score of 0 if no trace of the product of hydrolysis was seen after 8 hours of incubation) | 3 (a score of 3 for detection at 8 hours)
5 | Ac-GATIHLKFL-NH2 [TIHL] | 0 (a score of 0 if no trace of the product of hydrolysis was seen after 8 hours of incubation) | 0 (a score of 0 if no trace of the product of hydrolysis was seen after 8 hours of incubation)
6 | Ac-GATIHNKFL-NH2 [TIHN] | 0 (a score of 0 if no trace of the product of hydrolysis was seen after 8 hours of incubation) | 0 (a score of 0 if no trace of the product of hydrolysis was seen after 8 hours of incubation)
7 | Ac-GATIHPKFL-NH2 [TIHP] | 0 (a score of 0 if no trace of the product of hydrolysis was seen after 8 hours of incubation) | 0 (a score of 0 if no trace of the product of hydrolysis was seen after 8 hours of incubation)
8 | Ac-GATIHQKFL-NH2 [TIHQ] | 0 (a score of 0 if no trace of the product of hydrolysis was seen after 8 hours of incubation) | 0 (a score of 0 if no trace of the product of hydrolysis was seen after 8 hours of incubation)
9 | Ac-GATIHRKFL-NH2 [TIHR] | 0 (a score of 0 if no trace of the product of hydrolysis was seen after 8 hours of incubation) | 3 (a score of 3 for detection at 8 hours)
10 | Ac-GATIHSKFL-NH2 [TIHS] | 0 (a score of 0 if no trace of the product of hydrolysis was seen after 8 hours of incubation) | 0 (a score of 0 if no trace of the product of hydrolysis was seen after 8 hours of incubation)
11 | Ac-GATIHTKFL-NH2 [TIHT] | 0 (a score of 0 if no trace of the product of hydrolysis was seen after 8 hours of incubation) | 0 (a score of 0 if no trace of the product of hydrolysis was seen after 8 hours of incubation)
12 | Ac-GATIHWKFL-NH2 [TIHW] | 3 (a score of 3 for detection at 8 hours) | 3 (a score of 3 for detection at 8 hours)
13 | Ac-GATIHYKFL-NH2 [TIHY] | 0 (a score of 0 if no trace of the product of hydrolysis was seen after 8 hours of incubation) | 0 (a score of 0 if no trace of the product of hydrolysis was seen after 8 hours of incubation)
14 | Ac-GATKHAKFL-NH2 [TKHA] | 0 (a score of 0 if no trace of the product of hydrolysis was seen after 8 hours of incubation) | 3 (a score of 3 for detection at 8 hours)
15 | Ac-GATKHDKFL-NH2 [TKHD] | 0 (a score of 0 if no trace of the product of hydrolysis was seen after 8 hours of incubation) | 0 (a score of 0 if no trace of the product of hydrolysis was seen after 8 hours of incubation)
16 | Ac-GATKHEKFL-NH2 [TKHE] | 0 (a score of 0 if no trace of the product of hydrolysis was seen after 8 hours of incubation) | 0 (a score of 0 if no trace of the product of hydrolysis was seen after 8 hours of incubation)
17 | Ac-GATKHFKFL-NH2 [TKHF] | 3 (a score of 3 for detection at 8 hours) | 6 (a score of 6 for detection at 4 hours)
18 | Ac-GATKHGKFL-NH2 [TKHG] | 0 (a score of 0 if no trace of the product of hydrolysis was seen after 8 hours of incubation) | 0 (a score of 0 if no trace of the product of hydrolysis was seen after 8 hours of incubation)

Row | Substance | hydrolysis score from MALDI-TOF screening (37° C.) | hydrolysis score from MALDI-TOF screening (45° C.)
19 | Ac-GATKHHKFL-NH2 [TKHH] | 0 (a score of 0 if no trace of the product of hydrolysis was seen after 8 hours of incubation) | 4 (a score of 4 for detection at 6 hours)
20 | Ac-GATKHIKFL-NH2 [TKHI] | 4 (a score of 4 for detection at 6 hours) | 12 (a score of 12, if it was seen to be partially hydrolysed at 2 hours)
21 | Ac-GATKHKKFL-NH2 [TKHK] | 3 (a score of 3 for detection at 8 hours) | 12 (a score of 12, if it was seen to be partially hydrolysed at 2 hours)
22 | Ac-GATKHLKFL-NH2 [TKHL] | 4 (a score of 4 for detection at 6 hours) | 12 (a score of 12, if it was seen to be partially hydrolysed at 2 hours)
23 | Ac-GATKHMKFL-NH2 [TKHM] | 3 (a score of 3 for detection at 8 hours) | 4 (a score of 4 for detection at 6 hours)
24 | Ac-GATKHNKFL-NH2 [TKHN] | 0 (a score of 0 if no trace of the product of hydrolysis was seen after 8 hours of incubation) | 0 (a score of 0 if no trace of the product of hydrolysis was seen after 8 hours of incubation)
25 | Ac-GATKHPKFL-NH2 [TKHP] | 0 (a score of 0 if no trace of the product of hydrolysis was seen after 8 hours of incubation) | 0 (a score of 0 if no trace of the product of hydrolysis was seen after 8 hours of incubation)
26 | Ac-GATKHQKFL-NH2 [TKHQ] | 0 (a score of 0 if no trace of the product of hydrolysis was seen after 8 hours of incubation) | 0 (a score of 0 if no trace of the product of hydrolysis was seen after 8 hours of incubation)
27 | Ac-GATKHRKFL-NH2 [TKHR] | 4 (a score of 4 for detection at 6 hours) | 12 (a score of 12, if it was seen to be partially hydrolysed at 2 hours)
28 | Ac-GATKHSKFL-NH2 [TKHS] | 0 (a score of 0 if no trace of the product of hydrolysis was seen after 8 hours of incubation) | 0 (a score of 0 if no trace of the product of hydrolysis was seen after 8 hours of incubation)
29 | Ac-GATKHTKFL-NH2 [TKHT] | 0 (a score of 0 if no trace of the product of hydrolysis was seen after 8 hours of incubation) | 0 (a score of 0 if no trace of the product of hydrolysis was seen after 8 hours of incubation)
30 | Ac-GATKHVKFL-NH2 [TKHV] | 3 (a score of 3 for detection at 8 hours) | 6 (a score of 6 for detection at 4 hours)
31 | Ac-GATKHWKFL-NH2 [TKHW] | 6 (a score of 6 for detection at 4 hours) | 12 (a score of 12, if it was seen to be partially hydrolysed at 2 hours)
32 | Ac-GATKHYKFL-NH2 [TKHY] | 3 (a score of 3 for detection at 8 hours) | 6 (a score of 6 for detection at 4 hours)
33 | Ac-GATLHAKFL-NH2 [TLHA] | 0 (a score of 0 if no trace of the product of hydrolysis was seen after 8 hours of incubation) | 0 (a score of 0 if no trace of the product of hydrolysis was seen after 8 hours of incubation)
34 | Ac-GATLHDKFL-NH2 [TLHD] | 0 (a score of 0 if no trace of the product of hydrolysis was seen after 8 hours of incubation) | 0 (a score of 0 if no trace of the product of hydrolysis was seen after 8 hours of incubation)
35 | Ac-GATLHEKFL-NH2 [TLHE] | 0 (a score of 0 if no trace of the product of hydrolysis was seen after 8 hours of incubation) | 0 (a score of 0 if no trace of the product of hydrolysis was seen after 8 hours of incubation)
36 | Ac-GATLHFKFL-NH2 [TLHF] | 0 (a score of 0 if no trace of the product of hydrolysis was seen after 8 hours of incubation) | 0 (a score of 0 if no trace of the product of hydrolysis was seen after 8 hours of incubation)
